# Results: PMC3477264 (ACS chemical biology, 2012)
# Columns and labels:
# [1] = biological target: T1, cyclodiphosphate synthase IspF (Escherichia coli, UniProt P62617); experiment: HPLC-based assay, […] inhibition of the IspF-MEP complex at […] FDP; type: biochemical; conditions: read-out: % inhibition at 500 μM
# T1 sequence (P62617 1-159): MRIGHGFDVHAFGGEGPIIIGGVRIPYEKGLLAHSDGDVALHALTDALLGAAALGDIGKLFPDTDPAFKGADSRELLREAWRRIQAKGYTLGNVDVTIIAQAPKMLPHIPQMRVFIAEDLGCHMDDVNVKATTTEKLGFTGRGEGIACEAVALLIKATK
# [2] = biological target: T1, cyclodiphosphate synthase IspF; experiment: HPLC-based assay of CMP formation by purified IspF; type: biochemical
Compound,inhibition at 500 µM [1] [%],AC50 [2] [µM]
"CC(C)=CCC/C(C)=C/CC/C(C)=C/CO[P@@](=O)(O)OP(=O)(O)O (stereo in doubt) [FDP, farnesyl diphosphate]",43,
"C[C@](O)(CO)[C@H](O)CO [ME, 2C-methyl-D-erythritol]",,106 ± 14
"C[C@](O)(CO)[C@H](O)COP(=O)(O)O [MEP, 2C-methyl-D-erythritol 4-phosphate]",,133 ± 33
